{
  "source": "patent US9328173B2",
  "about": "“Multifunctional antibodies binding to EGFR and MET” (Eli Lilly and Company, priority 2013, dated 2016)",
  "molecules": {"B1": {"name": "EM1-mAb: bispecific antibody targeting both EGFR and cMET made by controlled Fab Arm Exchange (antibody, chains of the INN, looked up, V domains shown)", "VH": "QVQLVESGGGVVQPGRSLRLSCAASGFTFSTYGMHWVRQAPGKGLEWVAVIWDDGSYKYYGDSVKGRFTISRDNSKNTLYLQMNSLRAEDTAVYYCARDGITMVRGVMKDYFDYWGQGTLVTVSS", "VL": "AIQLTQSPSSLSASVGDRVTITCRASQDISSALVWYQQKPGKAPKLLIYDASSLESGVPSRFSGSESGTDFTLTISSLQPEDFATYYCQQFNSYPLTFGGGTKVEIK", "VH2": "QVQLVQSGAEVKKPGASVKVSCETSGYTFTSYGISWVRQAPGHGLEWMGWISAYNGYTNYAQKLQGRVTMTTDTSTSTAYMELRSLRSDDTAVYYCARDLRGTNYFDYWGQGTLVTVSS", "VL2": "DIQMTQSPSSVSASVGDRVTITCRASQGISNWLAWFQHKPGKAPKLLIYAASSLLSGVPSRFSGSGSGTDFTLTISSLQPEDFATYYCQQANSFPITFGQGTRLEIK"}},
  "key": {"FaDu cells": {"test_system": "FaDu cells", "experiment": "Restoring FaDu sensitivity to lapatinib in the presence of HGF or EGF", "format": "cell-based", "conditions": "Homo sapiens, antibodies 50 nM, read-out: % of cell viability; for viability at 0.001 µM: lapatinib 0.001 μM; for viability at 0.003 µM: lapatinib 0.003 μM; for viability at 0.01 µM: lapatinib 0.01 μM; for viability at 0.03 µM: lapatinib 0.03 μM; for viability at 0.1 µM: lapatinib 0.1 μM; for viability at 0.3 µM: lapatinib 0.3 μM; for viability at 1 µM: lapatinib 1 μM; for viability at 3 µM: lapatinib 3 μM; for viability at 10 µM: lapatinib 10 μM", "procedure": "(§1) Briefly, 3×10^3 cells/well in 100 μL culture medium may be plated in 96 well plates and incubated overnight at 37° C., 5% CO2. […] At the end of an additional 5 days of cell growth, plates may be equilibrated to room temperature for 30 minutes and 100 μL per well of CellTiter-Glo® reagent (Promega Corp.) may be added. Cell viability can be determined by measuring luminescence."}, "MKN45 cells": {"test_system": "MKN45 cells", "experiment": "MKN45 apoptosis assay (caspase-3/7 positive cells, […])", "format": "cell-based, human", "conditions": "antibody 100 nM, untreated = 100.00", "procedure": "The gastric cancer cell line MKN45 can be used to assay apoptosis induced by antibodies. Briefly, 3×10^3 cells/well in 80 μL culture medium may be plated in 96 well plates and incubated overnight at 37° C., 5% CO2. CellEvent™ reagent (Life Technologies, Carlsbad, Calif.) may be diluted in cell culture medium and added at 10 μL per well. […] The caspase-3/7 positive cells may be measured in real-time by […]™ Kinetic Imaging System (Essen Bioscience, Ann Arbor, Mich.) with 3 hours intervals at 37° C., 5% CO2 for a total of 120 hours."}, "HT-29 cells": {"test_system": "HT-29 cells", "experiment": "Restoring HT-29 sensitivity to PLX4032 in the presence of HGF and EGF", "format": "cell-based", "conditions": "Homo sapiens, HT-29, 120 h; read-out: AVG = average % of cell viability", "procedure": "as §1, with “The colon cancer cell line HT-29 has a B-Raf mutation and is sensitive to the B-Raf inhibitor PLX4032. […] Briefly,” for “Briefly,”"}, "HCC827 cells": {"test_system": "HCC827 cells", "experiment": "Restoring HCC827 sensitivity to erlotinib in the presence of HGF", "conditions": "Homo sapiens, HCC827, 72 h, read-out: AVG = average % of cell viability", "procedure": "Briefly, 3×10^3 cells/well in 100 μL culture medium may be plated in 96 well plates and incubated overnight at 37° C., 5% CO2. […] Cell viability may be determined by measuring luminescence."}, "ERK phosphorylation": {"test_system": "ERK phosphorylation", "conditions": "in vitro ERK phosphorylation assay; cited from earlier work"}},
  "note": "Where two headings read alike, the source gives them in different places.",
  "data": [
    {"molecule": "CS(=O)(=O)CCNCc1ccc(-c2ccc3ncnc(Nc4ccc(OCc5cccc(F)c5)c(Cl)c4)c3c2)o1", "note": "[lapatinib]", "values": [
      {"measurement": "viability at 0.001 µM", "setting": "FaDu cells; E = EGF (50 ng/ml)", "value": 109, "unit": "%"},
      {"measurement": "viability at 0.001 µM", "setting": "FaDu cells; H = HGF (50 ng/ml)", "value": 99.5, "unit": "%"},
      {"measurement": "viability at 0.003 µM", "setting": "FaDu cells; E = EGF (50 ng/ml)", "value": 109, "unit": "%"},
      {"measurement": "viability at 0.003 µM", "setting": "FaDu cells; H = HGF (50 ng/ml)", "value": 101, "unit": "%"},
      {"measurement": "viability at 0.01 µM", "setting": "FaDu cells; E = EGF (50 ng/ml)", "value": 78.7, "unit": "%"},
      {"measurement": "viability at 0.01 µM", "setting": "FaDu cells; H = HGF (50 ng/ml)", "value": 95.8, "unit": "%"},
      {"measurement": "viability at 0.03 µM", "setting": "FaDu cells; E = EGF (50 ng/ml)", "value": 69.4, "unit": "%"},
      {"measurement": "viability at 0.03 µM", "setting": "FaDu cells; H = HGF (50 ng/ml)", "value": 68.8, "unit": "%"},
      {"measurement": "viability at 0.1 µM", "setting": "FaDu cells; E = EGF (50 ng/ml)", "value": 45.6, "unit": "%"},
      {"measurement": "viability at 0.1 µM", "setting": "FaDu cells; H = HGF (50 ng/ml)", "value": 45.4, "unit": "%"},
      {"measurement": "viability at 0.3 µM", "setting": "FaDu cells; E = EGF (50 ng/ml)", "value": 32.5, "unit": "%"},
      {"measurement": "viability at 0.3 µM", "setting": "FaDu cells; H = HGF (50 ng/ml)", "value": 32.5, "unit": "%"},
      {"measurement": "viability at 1 µM", "setting": "FaDu cells; E = EGF (50 ng/ml)", "value": 26.3, "unit": "%"},
      {"measurement": "viability at 1 µM", "setting": "FaDu cells; H = HGF (50 ng/ml)", "value": 26.9, "unit": "%"},
      {"measurement": "viability at 3 µM", "setting": "FaDu cells; E = EGF (50 ng/ml)", "value": 19, "unit": "%"},
      {"measurement": "viability at 3 µM", "setting": "FaDu cells; H = HGF (50 ng/ml)", "value": 18.5, "unit": "%"},
      {"measurement": "viability at 10 µM", "setting": "FaDu cells; E = EGF (50 ng/ml)", "value": 19.6, "unit": "%"},
      {"measurement": "viability at 10 µM", "setting": "FaDu cells; H = HGF (50 ng/ml)", "value": 17.1, "unit": "%"}
    ]},
    {"molecule": "anti-MET Ab: parental anti-MET antibody C8-H241 (human IgG4 subtype), described in WO 2010/059654 [reference compound]", "values": [
      {"measurement": "AVG = average % increase of cell apoptosis", "setting": "MKN45 cells; 24 hr", "value": 100.35, "unit": "%"},
      {"measurement": "AVG = average % increase of cell apoptosis", "setting": "MKN45 cells; 48 hr", "value": 222.81, "unit": "%"},
      {"measurement": "AVG = average % increase of cell apoptosis", "setting": "MKN45 cells; 72 hr", "value": 275.40, "unit": "%"},
      {"measurement": "AVG = average % increase of cell apoptosis", "setting": "MKN45 cells; 96 hr", "value": 286.63, "unit": "%"},
      {"measurement": "AVG = average % increase of cell apoptosis", "setting": "MKN45 cells; 120 hr", "value": 353.84, "unit": "%"}
    ]},
    {"molecule": "CCCS(=O)(=O)Nc1ccc(F)c(C(=O)c2c[nH]c3ncc(-c4ccc(Cl)cc4)cc23)c1F", "note": "[PLX, PLX4032]", "values": [
      {"measurement": "viability at 0.00032 µM", "setting": "HT-29 cells", "value": 101, "unit": "%"},
      {"measurement": "viability at 0.0016 µM", "setting": "HT-29 cells", "value": 99.9, "unit": "%"},
      {"measurement": "viability at 0.008 µM", "setting": "HT-29 cells", "value": 97.6, "unit": "%"},
      {"measurement": "viability at 0.04 µM", "setting": "HT-29 cells", "value": 83.1, "unit": "%"},
      {"measurement": "viability at 0.2 µM", "setting": "HT-29 cells", "value": 56.7, "unit": "%"},
      {"measurement": "viability at 1 µM", "setting": "HT-29 cells", "value": 33.7, "unit": "%"}
    ]},
    {"molecule": "C#Cc1cccc(Nc2ncnc3cc(OCCOC)c(OCCOC)cc23)c1", "note": "[Erlotinib, erlotinib]", "values": [
      {"measurement": "viability at 1 µM", "setting": "HCC827 cells", "value": 18, "unit": "%"}
    ]},
    {"molecule": "B1", "values": [
      {"measurement": "activity compared to the combination of monovalent control antibodies", "setting": "ERK phosphorylation", "value": "superior activity"}
    ]}
  ]
}
